Data taken from patent publication US20210261512A1, “NOVEL COMPOUNDS” (INFLAZOME LIMITED, priority 2018, published 2021).

molecular target: NLRP3 (Homo sapiens, UniProt Q96P20); test: THP-1 cells pyroptosis assay; format: cell-based; design: Seed THP-1 cells (25,000 cells/well) containing 1.0 μg/ml LPS; host or cells: THP-1; conditions: LPS 1.0 μg/ml, nigericin 5 μM, resazurin readout, 10 μM top dose (Example 2: top dose of 30 μM)
Procedure: THP-1 cells (ATCC #TIB-202) were grown in RPMI containing L-glutamine (Gibco #11835) supplemented with imM sodium pyruvate (Sigma #S8636) and penicillin (100 units/ml)/streptomycin (0.1 mg/ml) (Sigma #P4333) in 10% Fetal Bovine Serum (FBS) (Sigma #F0804). The cells were routinely passaged and grown to confluency (˜10^6 cells/ml). On the day of the experiment, THP-1 cells were harvested and resuspended into RPMI medium (without FBS). The cells were then counted and viability (>90%) checked by Trypan blue (Sigma #T8154). Appropriate dilutions were made to give a concentration of 625,000 cells/ml. To this diluted cell solution was added LPS (Sigma #L4524) to give a 1 μg/ml Final Assay Concentration (FAC). 40 μl of the final preparation was aliquoted into each well of a 96-well plate. The plate thus prepared was used for compound screening.
The following method step-by-step assay was followed for compound screening. • 1. Seed THP-1 cells (25,000 cells/well) containing 1.0 μg/ml LPS in 40 μl of RPMI medium (without FBS) in 96-well, black walled, clear bottom cell culture plates coated with poly-D-lysine (VWR #734-0317) • 2. Add 5 μl compound (8 points four-fold dilution or 8 points half-log dilution, with 10 μM top dose, unless stated otherwise) or vehicle (DMSO 0.1% FAC) to the appropriate wells • 3. Incubate for 3 hrs at 37° C. and 5% CO2 • 4. Add 5 μl nigericin (Sigma #N7143) (FAC 5 μM) to all wells • 5. Incubate for 1 hr at 37° C. and 5% CO2 • 6. At the end of the incubation period, spin plates at 300×g for 3 mins and remove supernatant • 7. Then add 50 μl of resazurin (Sigma #R^7017) (FAC 100 μM resazurin in RPMI medium without FBS) and incubate plates for a further 1-2 hrs at 37° C. and 5% CO2 • 8. Plates were read in an Envision reader at Ex 560 nm and Em 590 nm • 9. IC50 data is fitted to a non-linear regression equation (log inhibitor vs response-variable slope 4-parameters)

Chain of NLRP3 (Q96P20 whole entry): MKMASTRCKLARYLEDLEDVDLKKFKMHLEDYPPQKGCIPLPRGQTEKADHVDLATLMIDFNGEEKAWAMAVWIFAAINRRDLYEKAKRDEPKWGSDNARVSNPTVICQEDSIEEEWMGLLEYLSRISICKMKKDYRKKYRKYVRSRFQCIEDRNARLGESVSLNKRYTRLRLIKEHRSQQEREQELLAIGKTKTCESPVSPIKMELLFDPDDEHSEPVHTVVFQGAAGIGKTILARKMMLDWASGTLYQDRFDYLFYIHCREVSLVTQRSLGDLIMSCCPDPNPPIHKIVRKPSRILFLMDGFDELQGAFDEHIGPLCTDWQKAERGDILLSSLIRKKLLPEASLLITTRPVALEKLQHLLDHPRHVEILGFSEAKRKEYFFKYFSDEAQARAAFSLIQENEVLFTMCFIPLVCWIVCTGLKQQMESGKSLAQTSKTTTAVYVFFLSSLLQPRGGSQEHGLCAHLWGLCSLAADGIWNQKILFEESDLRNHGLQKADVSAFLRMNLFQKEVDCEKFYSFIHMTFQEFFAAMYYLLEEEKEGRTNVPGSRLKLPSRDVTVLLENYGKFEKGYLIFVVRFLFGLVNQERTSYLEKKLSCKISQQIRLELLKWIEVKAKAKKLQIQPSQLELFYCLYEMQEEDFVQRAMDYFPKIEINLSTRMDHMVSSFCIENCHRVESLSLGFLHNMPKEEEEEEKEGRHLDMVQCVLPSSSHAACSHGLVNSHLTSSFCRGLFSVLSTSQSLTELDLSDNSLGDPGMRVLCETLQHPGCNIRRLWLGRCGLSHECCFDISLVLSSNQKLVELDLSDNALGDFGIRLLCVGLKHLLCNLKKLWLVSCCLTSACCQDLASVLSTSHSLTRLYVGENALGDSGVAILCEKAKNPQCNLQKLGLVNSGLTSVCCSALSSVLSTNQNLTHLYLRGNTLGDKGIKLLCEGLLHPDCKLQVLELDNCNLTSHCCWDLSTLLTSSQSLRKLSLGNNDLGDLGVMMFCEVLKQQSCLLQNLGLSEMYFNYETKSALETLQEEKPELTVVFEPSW

IC50	Compound
≤ 1 µM	CC(c1cc(S(=O)(=O)c2nnc(Nc3c4c(cc5c3CCC5)CCC4)[nH]2)nn1C(C)C)N(C)C (stereo not shown) [Example 8, 5-((5-(1-(dimethylamino)ethyl)-1-isopropyl-1H-pyrazol-3-yl)sulfonyl)-N-(1,2,3,5,6,7-hexahydro-s-indacen-4-yl)-4H-1,2,4-triazol-3-amine]
≤ 5 µM	COC1(c2cc(S(=O)(=O)c3nnc(Nc4c5c(cc6c4CCC6)CCC5)[nH]3)nn2C(C)C)COC1 [Example 14, N-(1,2,3,5,6,7-hexahydro-s-indacen-4-yl)-5-((1-isopropyl-5-(3-methoxyoxetan-3-yl)-1H-pyrazol-3-yl)sulfonyl)-4H-1,2,4-triazol-3-amine]
≤ 5 µM	COC1(c2cc(S(=O)(=O)c3nnc(Nc4c5c(cc6c4CCC6)CCC5)[nH]3)nn2C2CC2)COC1 [Example 16, 5-((1-cyclopropyl-5-(3-methoxyoxetan-3-yl)-1H-pyrazol-3-yl)sulfonyl)-N-(1,2,3,5,6,7-hexahydro-s-indacen-4-yl)-4H-1,2,4-triazol-3-amine]
≤ 10 µM	O=S(=O)(c1nnc(Nc2c3c(cc4c2CCC4)CCC3)[nH]1)C1CNC1 [Example 21, 5-(azetidin-3-ylsulfonyl)-N-(1,2,3,5,6,7-hexahydro-s-indacen-4-yl)-4H-1,2,4-triazol-3-amine]
≤ 10 µM	COC1(c2cc([S+]([O-])c3nnc(Nc4c5c(cc6c4CCC6)CCC5)[nH]3)nn2C(C)C)COC1 (stereo not shown) [Example 25, N-(1,2,3,5,6,7-hexahydro-s-indacen-4-yl)-5-((1-isopropyl-5-(3-methoxyoxetan-3-yl)-1H-pyrazol-3-yl)sulfinyl)-4H-1,2,4-triazol-3-amine]
≤ 10 µM	COC1(c2cc([S+]([O-])c3nnc(Nc4c5c(cc6c4CCC6)CCC5)[nH]3)nn2C)COC1 (stereo not shown) [Example 26, N-(1,2,3,5,6,7-hexahydro-s-indacen-4-yl)-5-((5-(3-methoxyoxetan-3-yl)-1-methyl-1H-pyrazol-3-yl)sulfinyl)-4H-1,2,4-triazol-3-amine]
≤ 10 µM	CC(C)c1cc(F)cc(C(C)C)c1Cc1nnc(S(=O)(=O)Cc2ccc(F)cc2)[nH]1 [Example 28, 3-(4-fluoro-2,6-diisopropylbenzyl)-5-((4-fluorobenzyl)sulfonyl)-4H-1,2,4-triazole]
≤ 10 µM	CC(C)n1ccc(S(=O)(=O)c2nnc(Cc3c4c(cc5c3CCC5)CCC4)[nH]2)n1 [Example 30, 3-((1,2,3,5,6,7-hexahydro-s-indacen-4-yl)methyl)-5-((1-isopropyl-1H-pyrazol-3-yl)sulfonyl)-4H-1,2,4-triazole]
≤ 5 µM	COc1cc(-c2ccc3c(c2Cc2nnc(S(=O)(=O)c4ccn(C(C)C)n4)[nH]2)CCC3)ccn1 [Example 32, 4-(4-((5-((1-isopropyl-H-pyrazol-3-yl)sulfonyl)-4H-1,2,4-triazol-3-yl)methyl)-2,3-dihydro-1H-inden-5-yl)-2-methoxypyridine]
≤ 10 µM	CC(C)c1cc(F)cc(-c2cccnc2)c1Nc1nnc(S(=O)(=O)c2ccn(C(C)C)n2)[nH]1 [Example 39, N-(4-fluoro-2-isopropyl-6-(pyridin-3-yl)phenyl)-5-((1-isopropyl-1H-pyrazol-3-yl)sulfonyl)-4H-1,2,4-triazol-3-amine]
≤ 10 µM	O=S(=O)(c1ccccc1)c1nc(Nc2c(-c3cccnc3)cc(F)c3c2CCC3)n[nH]1 [Example 41, N-(7-fluoro-5-(pyridin-3-yl)-2,3-dihydro-1H-inden-4-yl)-5-(phenylsulfonyl)-1H-1,2,4-triazol-3-amine]
≤ 10 µM	CC(C)c1cc(F)cc(C(C)C)c1Nc1nnc(S(=O)(=O)c2ccccc2)[nH]1 [Example 42, N-(4-fluoro-2,6-diisopropylphenyl)-3-(phenylsulfonyl)-1H-1,2,4-triazol-5-amine]
≤ 5 µM	O=S(=O)(CCCO)c1nnc(Nc2c3c(cc4c2CCC4)CCC3)[nH]1 [Example 47, 3-((5-((1,2,3,5,6,7-hexahydro-s-indacen-4-yl)amino)-4H-1,2,4-triazol-3-yl)sulfonyl)propan-1-ol]
